US12661342B2, “Heteroaryl compounds and therapeutic uses thereof in conditions associated with the alteration of the activity of beta-glucocerebrosidase” (GT GAIN THERAPEUTICS SA, priority 2019, dated 2026)

Target: T1, β-glucocerebrosidase (Homo sapiens, UniProt P04062, L483P)
T1 construct: host or cells: human Gaucher disease patient fibroblasts GM08760A
T1 sequence (P04062 40-536 L483P): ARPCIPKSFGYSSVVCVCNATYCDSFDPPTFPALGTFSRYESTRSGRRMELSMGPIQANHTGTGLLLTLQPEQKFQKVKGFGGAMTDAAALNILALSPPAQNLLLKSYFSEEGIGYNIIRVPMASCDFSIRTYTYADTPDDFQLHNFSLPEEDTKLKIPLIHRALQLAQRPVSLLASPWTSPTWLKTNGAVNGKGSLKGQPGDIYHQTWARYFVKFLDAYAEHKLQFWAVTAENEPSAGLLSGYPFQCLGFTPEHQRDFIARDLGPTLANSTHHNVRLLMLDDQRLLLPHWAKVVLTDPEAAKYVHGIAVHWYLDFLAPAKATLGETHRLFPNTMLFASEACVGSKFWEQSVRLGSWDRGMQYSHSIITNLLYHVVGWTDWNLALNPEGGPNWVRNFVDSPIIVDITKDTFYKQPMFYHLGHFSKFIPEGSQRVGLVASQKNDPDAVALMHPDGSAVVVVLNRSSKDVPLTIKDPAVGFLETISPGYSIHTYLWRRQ
Experiment: Enhancement of β-glucocerebrosidase activity measured in Gaucher disease fibroblasts (4-MU-β-D-glucopyranoside substrate, intact cells)
Assay type: cell-based
Design: key: Increase in comparison with non-treated of >2.0 fold is shown as A; Increase in comparison with non-treated of >1.7-2.0 fold is shown as B; Increase in comparison with non-treated of 1.2-1.7 fold is shown as C; D means that no increase compared with non-treated cells was detected in this method
Settings: GBA fibroblasts bearing L444P (GM08760A, homozygous p.L444P); compound at concentrations between 6 and 50 μM; 4 days incubation
In short: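 Patient fibroblasts homozygous for p.L444P (GM08760A), grown in DMEM/10% FBS and exposed to compound for 4 days. Intact cells then given 4-MU-β-D-glucopyranoside in 0.1 M acetate pH 4, 1 h, 37 °C; stopped at pH 10.7, 4-MU fluorescence ex 340/em 460. Value is fold increase over untreated cells; binned at 6–50 μM.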

SMILES	Range: increase in enzyme activity in comparison with non-treated cells (Enzyme activity assay for exemplified compounds)	Range: increase in enzyme activity in comparison with non-treated cells (Enzyme activity assay for compounds of Examples 33-141)
CN(Cc1ccccc1)C(=O)c1cc(N)nc(N[C@H]2CCCC[C@@H]2O)n1 [Example 15, 6-Amino-N-benzyl-2-(((1S,2S)-2-hydroxycyclohexyl)amino)-N-methylpyrimidine-4-carboxamide]	D	
Cc1cccc(Nc2cc(N)cc(C(=O)NC3Cc4ccccc4C3)n2)c1 [Example 97, 4-Amino-N-(2,3-dihydro-1H-inden-2-yl)-6-(m-tolylamino)picolinamide]		A (Increase in comparison with non-treated of >2.0 fold is shown as A)
CN(C(=O)c1cc(N)cc(Nc2cccc(F)c2)n1)c1ccccc1 [Example 115, 6-(3-Fluorophenylamino)-4-amino-N-methyl-N-phenylpyridine-2-carboxamide]		C (Increase in comparison with non-treated of 1.2-1.7 fold is shown as C)
CN(C(=O)c1cc(N)cc(Nc2cccc(F)c2)n1)C1Cc2ccccc2C1 [Example 107, 4-Amino-N-(2,3-dihydro-1H-inden-2-yl)-6-((3-fluorophenyl)amino)-N-methylpicolinamide]		C (Increase in comparison with non-treated of 1.2-1.7 fold is shown as C)
Nc1cc(Nc2ccc(F)cc2O)cc(C(=O)Nc2ccccc2)n1 [Example 78, 6-Amino-4-((4-fluoro-2-hydroxyphenyl)amino)-N-phenylpicolinamide]		B (Increase in comparison with non-treated of >1.7-2.0 fold is shown as B)
Nc1cc(Nc2cccc(F)c2)nc(C(=O)N2CCN(c3ccccc3)CC2)c1 [Example 105, (4-Amino-6-((3-fluorophenyl)amino)pyridin-2-yl)(4-phenylpiperazin-1-yl)methanone]		B (Increase in comparison with non-treated of >1.7-2.0 fold is shown as B)
CN(C(=O)c1cc(N)nc(Nc2ccccc2O)n1)C1Cc2ccccc2C1 [Example 10, 6-Amino-N-(2,3-dihydro-1H-inden-2-yl)-2-((2-hydroxyphenyl)amino)-N-methylpyrimidine-4-carboxamide]	C (Increase in comparison with non-treated of 1.2-1.7 fold is shown as C)	
Nc1nc2c(c(Nc3ccccc3O)n1)CCN(c1ccccc1)C2 [Example 32, 2-((2-Amino-7-phenyl-5,6,7,8-tetrahydropyrido[3,4-d]pyrimidin-4-yl)amino)phenol]	B (Increase in comparison with non-treated of >1.7-2.0 fold is shown as B)	
CN(C(=O)c1cc(N)cc(Nc2ccccc2F)n1)C1Cc2ccccc2C1.Cl [Example 132, 4-Amino-N-(2,3-dihydro-1H-inden-2-yl)-6-((2-fluorophenyl)amino)-N-methylpicolinamide hydrochloride]		C (Increase in comparison with non-treated of 1.2-1.7 fold is shown as C)
COc1cccc(Nc2cc(N)cc(C(=O)Nc3ccccc3)n2)c1.Cl [Example 135, 4-Amino-6-((3-methoxyphenyl)amino)-N-phenylpicolinamide hydrochloride]		A (Increase in comparison with non-treated of >2.0 fold is shown as A)
Nc1cc(Nc2ccccc2F)nc(C(=O)N2CCN(c3ccccc3)CC2)c1 [Example 48, (4-Amino-6-((2-fluorophenyl)amino)pyridin-2-yl)(4-phenylpiperazin-1-yl)methanone]		C (Increase in comparison with non-treated of 1.2-1.7 fold is shown as C)
CN(C(=O)c1cc(N)nc(Nc2ccccc2O)n1)c1ccccc1 [Example 5, 6-Amino-2-((2-hydroxyphenyl)amino)-N-methyl-N-phenylpyrimidine-4-carboxamide]	C (Increase in comparison with non-treated of 1.2-1.7 fold is shown as C)	
Nc1cc(Nc2cccc(F)c2)nc(C(=O)NC2Cc3ccccc3C2)c1 [Example 92, 4-Amino-N-(2,3-dihydro-1H-inden-2-yl)-6-((3-fluorophenyl)amino)picolinamide]		A (Increase in comparison with non-treated of >2.0 fold is shown as A)
CN(C(=O)c1cc(N)nc(Nc2ccccc2O)c1)c1ccccc1 [Example 43, 2-Amino-6-((2-hydroxyphenyl)amino)-N-methyl-N-phenylisonicotinamide]		C (Increase in comparison with non-treated of 1.2-1.7 fold is shown as C)
CN(C(=O)c1cc(N)cc(Nc2ccccc2F)n1)c1ccccc1 [Example 114, 4-Amino-6-((2-fluorophenyl)amino)-N-methyl-N-phenylpicolinamide]		D
Nc1cc(Nc2ccccc2Cl)cc(C(=O)N2CCN(c3ccccc3)CC2)n1 [Example 60]		C (Increase in comparison with non-treated of 1.2-1.7 fold is shown as C)
Nc1cc(Nc2cccc3c2OCO3)cc(C(=O)NC2Cc3ccccc3C2)n1 [Example 123, 6-Amino-4-(benzo[d][1,3]dioxol-4-ylamino)-N-(2,3-dihydro-1H-inden-2-yl)picolinamide]		C (Increase in comparison with non-treated of 1.2-1.7 fold is shown as C)
COc1ccccc1Nc1cc(N)cc(C(=O)Nc2ccccc2)n1 [Example 93, 4-Amino-6-((2-methoxyphenyl)amino)-N-phenylpicolinamide]		B (Increase in comparison with non-treated of >1.7-2.0 fold is shown as B)
COc1ccc(Nc2nc(N)c3c(n2)CN(Cc2ccccc2)CC3)cc1 [Example 30, 7-Benzyl-N2-(4-methoxyphenyl)-5,6,7,8-tetrahydropyrido[3,4-d]pyrimidine-2,4-diamine]	C (Increase in comparison with non-treated of 1.2-1.7 fold is shown as C)	
COc1cccc(Nc2nc(N)c3c(n2)CN(Cc2ccccc2)CC3)c1 [Example 27, 7-Benzyl-N^2-(3-methoxyphenyl)-5,6,7,8-tetrahydropyrido[3,4-d]pyrimidine-2,4-diamine]	A (Increase in comparison with non-treated of >2.0 fold is shown as A)	
Nc1nc(Nc2cccc(Br)c2)nc(C(=O)N2CCN(c3ccccc3)CC2)n1 [Example 16, (4-Amino-6-((3-bromophenyl)amino)-1,3,5-triazin-2-yl)(4-phenylpiperazin-1-yl)methanone]	C (Increase in comparison with non-treated of 1.2-1.7 fold is shown as C)	
COc1ccccc1Nc1cc(N)nc(C(=O)N(C)c2ccccc2)c1 [Example 50, 6-Amino-4-((2-methoxyphenyl)amino)-N-methyl-N-phenylpicolinamide]		D
COc1ccccc1Nc1cc(N)cc(C(=O)NC2Cc3ccccc3C2)n1 [Example 54, 4-Amino-N-(2,3-dihydro-1H-inden-2-yl)-6-((2-methoxyphenyl)amino)picolinamide]		C (Increase in comparison with non-treated of 1.2-1.7 fold is shown as C)
COc1cccc(Nc2nc(N)cc(C(=O)N3Cc4ccccc4C3)n2)c1 [Example 38, (6-Amino-2-((3-methoxyphenyl)amino)pyrimidin-4-yl)(isoindolin-2-yl)methanone]		D
Nc1cc(Nc2ccccc2F)cc(C(=O)NC2Cc3ccccc3C2)n1 [Example 70, 6-Amino-N-(2,3-dihydro-1H-inden-2-yl)-4-((2-fluorophenyl)amino)picolinamide]		D
Cc1cccc(NC(=O)c2cc(N)cc(Nc3cccc(F)c3)n2)c1.Cl [Example 136, 4-Amino-6-((3-fluorophenyl)amino)-N-(m-tolyl)picolinamide hydrochloride]		A (Increase in comparison with non-treated of >2.0 fold is shown as A)
Nc1nc(Nc2ccccc2O)nc(C(=O)NC2CCc3ccccc3C2)n1 (stereo not drawn) [Example 126, 4-Amino-6-((2-hydroxyphenyl)amino)-N-(1,2,3,4-tetrahydronaphthalen-2-yl)-1,3,5-triazine-2-carboxamide]		C (Increase in comparison with non-treated of 1.2-1.7 fold is shown as C)
